Measured values: ChEMBL document CHEMBL4414611, “Hypascyrins A-E, Prenylated Acylphloroglucinols from Hypericum ascyron” (2019)
Values after ≈ are worked out from the molar mass of the structure shown.

What was measured:
Assay type in all cases: functional
Escherichia coli = test: Antibacterial activity against Escherichia coli assessed as reduction in bacterial growth incubated for 20 hrs by broth microdilution assay
Staphylococcus aureus [1] = test: Antibacterial activity against methicillin resistant Staphylococcus aureus assessed as reduction in bacterial growth incubated for 20 hrs by broth microdilution assay
Staphylococcus aureus [2] = test: Antibacterial activity against methicillin susceptible Staphylococcus aureus assessed as reduction in bacterial growth incubated for 20 hrs by broth microdilution assay
Bacillus subtilis = test: Antibacterial activity against Bacillus subtilis assessed as reduction in bacterial growth incubated for 20 hrs by broth microdilution assay

C=C(C)[C@@H]1CC[C@](C)(O)[C@H](C2=C(O)C(CC=C(C)C)(CC=C(C)C)C(=O)C(C(=O)CC(C)C)=C2O)C1
MIC50 (Escherichia coli): > 64 µM | MIC50 (Staphylococcus aureus [1]): 2 µM (≈ 0.997 µg/mL) | MIC (Staphylococcus aureus [2]): 1 to 2 µM (≈ 0.499 to 0.997 µg/mL) | MIC50 (Staphylococcus aureus [2]): 2 µM (≈ 0.997 µg/mL) | MIC (Bacillus subtilis): 2 µM (≈ 0.997 µg/mL)

CC(C)=CCC1(CC=C(C)C)C(=O)C(C(=O)CC(C)C)=C(O)C([C@@H]2C=C(C(C)C)CC[C@]2(C)O)=C1O
MIC50 (Escherichia coli): > 64 µM | MIC (Staphylococcus aureus [1]): 4 to 8 µM (≈ 1.99 to 3.99 µg/mL) | MIC50 (Staphylococcus aureus [1]): 4 µM (≈ 1.99 µg/mL) | MIC (Staphylococcus aureus [2]): 4 µM (≈ 1.99 µg/mL) | MIC50 (Staphylococcus aureus [2]): 4 µM (≈ 1.99 µg/mL) | MIC (Bacillus subtilis): 4 µM (≈ 1.99 µg/mL)

CCC(C)C(=O)C1=C(O)C([C@@H]2C=C(C(C)C)CC[C@]2(C)O)=C(O)C(CC=C(C)C)(CC=C(C)C)C1=O (stereo partly specified)
MIC50 (Escherichia coli): > 64 µM | MIC50 (Staphylococcus aureus [1]): 8 µM (≈ 3.99 µg/mL) | MIC (Staphylococcus aureus [2]): 4 to 8 µM (≈ 1.99 to 3.99 µg/mL) | MIC50 (Staphylococcus aureus [2]): 8 µM (≈ 3.99 µg/mL) | MIC (Bacillus subtilis): 4 µM (≈ 1.99 µg/mL)
